Measurements: patent US20040009511A1, “Identification of compounds which stimulate bone formation using a cell-based screening assay targeting BMP signaling” (priority 2002, published 2004)

Key:
Type in all cases: cell-based
[1] = system: 9×SBE-6×OSE2-OC-luc reporter construct in 2T3 C-17 cells; assay: Luciferase assay, 9×SBE-6×OSE2-OC-luc reporter stably transfected in 2T3 clone C-17; set-up: Luciferase Activity: unit not given here; details: for Luciferase Activity / Luciferase Activity (fold increase) / Effect on luciferase activity of the reporter construct / Luciferase Activity, value in parentheses (fold increase): 24 hours; for Maximal effect, fold increase in luciferase activity: over the concentrations tested
Protocol: (§1) An oligonucleotide containing 9 copies of Smad1 response element (9×SBE) and 6 copies of Cbfa1 response element (6×OSE2) was synthesized in the DNA laboratory at University of Texas Health Science Center at San Antonio. The osteocalcin basal promoter (OC, −155/+1) was amplified by Polymerase Chain Reaction (PCR) using mouse genomic DNA as a template and cloned into pGL3 vector. An 9×SBE-6×OSE2 oligonucleotide was cloned upstream of osteocalcin basal promoter.
(§2) C2C12 and 2T3 cells were plated in 6-well culture plates at densities of 4×10^5 and 2×10^5 cells/well and cultured with DMEM or α minimal essential medium (α MEM) supplemented with 10% FCS for 24 hours. A 9×SBE-6×OSE2-OC-luc-reporter construct (2 μg/well) was co-transfected with pcDNA3 empty vector (0.2 mg/well) in C2C12 and 2T3 cells using lipofactamine plus reagents (Gibco/BRL). Forty eight hours later, G418 (200 μg/ml) was added to the culture plates. Four weeks after G418 selection, the G418 resistant cells were plated in 96-well plates at the density of 1 cell/well and cloned by limiting dilution method.
(§3) C2C12 and 2T3 cells, in which 9×SBE-6×OSE2-OC-luc-reporter construct was stably transfected, were plated in 96-well culture plates at densities of 1×10^4 and 0.5×10^4 cells/well and cultured for 24 hours. The medium was changed to fresh medium supplemented with 2% FCS and different growth factors or hormone were added to culture medium for 24 hours or different compounds were added to culture medium for 2, 6, 12, 24 and 48 hours. The cell lysates were extracted and luciferase activities were determined by luciferase assay kit (Promega, Madison, Wis.) using a Luminometer.
(§4) At the end of the incubation, the cell lysates were extracted using lysis buffer and luciferase activities were measured using a luciferase assay kit (Promega).

[2] = system: 9×SBE-6×OSE2-OC-luc reporter construct in C2C12 C-10-62 cells; assay: Luciferase assay, 9×SBE-6×OSE2-OC-luc reporter stably transfected in C2C12 clone C-10-62; details: for Maximal effect, fold increase in luciferase activity: over the concentrations tested; for Effect on luciferase activity of the reporter construct: 24 hours
Protocol: as §1, §2, §3, §4

[3] = system: 9×SBE-6×OSE2-OC-luc reporter construct; assay: Luciferase assay, 9×SBE-6×OSE2-OC-luc reporter construct, cells not specified
Description: as §1, §3
Further, a reporter construct which contains multiple copies of both Smad1 (SBE) and Cbfa1 (OSE2) response elements (9×SBE-6×OSE2-OC-luc) was made.

[4] = 2-ME 1.25 μM, 2T3 cell clone 17
[5] = 9-cis RA 1.25 μM, 2T3 cell clone 17
[6] = 9-cis RA 2.5 μM, 2T3 cell clone 17
[7] = 9-cis RA 5 μM, 2T3 cell clone 17
[8] = 9-cis RA 10 μM, 2T3 cell clone 17
[9] = All-trans RA 1.25 μM, 2T3 cell clone 17
[10] = All-trans RA 2.5 μM, 2T3 cell clone 17
[11] = All-trans RA 5 μM, 2T3 cell clone 17
[12] = All-trans RA 10 μM, 2T3 cell clone 17
[13] = TN-16 0.039 μM, 2T3 cell clone 17
[14] = TN-16 0.078 μM, 2T3 cell clone 17
[15] = TN-16 0.156 μM, 2T3 cell clone 17
[16] = TN-16 0.3125 μM, 2T3 cell clone 17
[17] = TN-16 0.625 μM, 2T3 cell clone 17
[18] = TN-16 1.25 μM, 2T3 cell clone 17
[19] = TN-16 2.5 μM, 2T3 cell clone 17

COc1cc2c(cc1O)CC[C@@H]1[C@@H]2CC[C@]2(C)[C@@H](O)CC[C@@H]12 [2-ME, 2-methoxyestradiol, reference compound]
Luciferase Activity ([1]; 2-ME 0.625 μM, 2T3 cell clone 17): 0.052
Luciferase Activity [1, 4]: 0.059
Luciferase Activity (fold increase) [1, 4]: 1.2 fold
Luciferase Activity ([1]; 2-ME 2.5 μM, 2T3 cell clone 17): 0.065
Luciferase Activity (fold increase) ([1]; 2-ME 2.5 μM, 2T3 cell clone 17): 1.3 fold
Luciferase Activity ([1]; 2-ME 5 μM, 2T3 cell clone 17): 0.102
Luciferase Activity (fold increase) ([1]; 2-ME 5 μM, 2T3 cell clone 17): 2.0 fold
Luciferase Activity ([1]; 2-ME 10 μM, 2T3 cell clone 17): 0.130
Luciferase Activity (fold increase) ([1]; 2-ME 10 μM, 2T3 cell clone 17): 2.6 fold
Effect on luciferase activity of the reporter construct ([1]; 2T3 C-17 cells): stimulated the reporter construct in a dose-dependent manner

CC1=C(/C=C/C(C)=C\C=C\C(C)=C\C(=O)O)C(C)(C)CCC1 [9-cis RA, 9-cis retinoic acid, reference compound]
Maximal effect, fold increase in luciferase activity ([1]; 2T3 C-17 cells): 5 fold
Luciferase Activity [1, 5]: 0.160
Luciferase Activity, value in parentheses (fold increase) [1, 5]: 3.6 fold
Luciferase Activity [1, 6]: 0.160
Luciferase Activity, value in parentheses (fold increase) [1, 6]: 3.6 fold
Luciferase Activity [1, 7]: 0.164
Luciferase Activity, value in parentheses (fold increase) [1, 7]: 3.6 fold
Luciferase Activity [1, 8]: 0.226
Luciferase Activity, value in parentheses (fold increase) [1, 8]: 5.0 fold
Maximal effect, fold increase in luciferase activity [2]: 5 fold

CC1=C(/C=C/C(C)=C/C=C/C(C)=C/C(=O)O)C(C)(C)CCC1 [All-trans RA, all-trans retinoic acid, reference compound]
Maximal effect, fold increase in luciferase activity ([1]; 2T3 C-17 cells): 5 fold
Luciferase Activity [1, 9]: 0.113
Luciferase Activity, value in parentheses (fold increase) [1, 9]: 2.5 fold
Luciferase Activity [1, 10]: 0.142
Luciferase Activity, value in parentheses (fold increase) [1, 10]: 3.2 fold
Luciferase Activity [1, 11]: 0.164
Luciferase Activity, value in parentheses (fold increase) [1, 11]: 3.6 fold
Luciferase Activity [1, 12]: 0.219
Luciferase Activity, value in parentheses (fold increase) [1, 12]: 4.9 fold
Maximal effect, fold increase in luciferase activity [2]: 5 fold

CC(Nc1ccccc1)=C1C(=O)NC(Cc2ccccc2)C1=O (centres unmarked) [TN-16, reference compound]
Effect on luciferase activity of the reporter construct ([1]; 2T3 C-17 cells): stimulated the reporter construct in a dose-dependent manner
Maximal effect, fold increase in luciferase activity ([1]; 2T3 C-17 cells): 5 fold
Luciferase Activity [1, 13]: 0.022
Luciferase Activity (fold increase) [1, 13]: 0.9 fold
Luciferase Activity [1, 14]: 0.037
Luciferase Activity (fold increase) [1, 14]: 1.6 fold
Luciferase Activity [1, 15]: 0.036
Luciferase Activity (fold increase) [1, 15]: 1.6 fold
Luciferase Activity [1, 16]: 0.038
Luciferase Activity (fold increase) [1, 16]: 1.6 fold
Luciferase Activity [1, 17]: 0.057
Luciferase Activity (fold increase) [1, 17]: 2.5 fold
Luciferase Activity [1, 18]: 0.081
Luciferase Activity (fold increase) [1, 18]: 3.5 fold
Luciferase Activity [1, 19]: 0.079
Luciferase Activity (fold increase) [1, 19]: 3.4 fold
Luciferase Activity ([1]; TN-16 5 μM, 2T3 cell clone 17): 0.111
Luciferase Activity (fold increase) ([1]; TN-16 5 μM, 2T3 cell clone 17): 4.8 fold
Luciferase Activity ([1]; TN-16 10 μM, 2T3 cell clone 17): 0.098
Luciferase Activity (fold increase) ([1]; TN-16 10 μM, 2T3 cell clone 17): 4.2 fold

TGF-β
Luciferase activity normalized to protein content ([1]; 2T3 C-17 cells): no significant effect
Maximal effect, fold increase in luciferase activity ([1]; 2T3 C-17 cells): 3 fold
Luciferase Activity ([1]; TGF-β 0.0195 ng/ml, 2T3 C-17 cells): 0.046
Luciferase Activity ([1]; TGF-β 0.039 ng/ml, 2T3 C-17 cells): 0.052
Luciferase Activity ([1]; TGF-β 0.078 ng/ml, 2T3 C-17 cells): 0.053
Luciferase Activity ([1]; TGF-β 0.156 ng/ml, 2T3 C-17 cells): 0.062
Luciferase Activity ([1]; TGF-β 0.3125 ng/ml, 2T3 C-17 cells): 0.08
Luciferase Activity ([1]; TGF-β 0.625 ng/ml, 2T3 C-17 cells): 0.09
Luciferase Activity ([1]; TGF-β 1.25 ng/ml, 2T3 C-17 cells): 0.102
Luciferase Activity ([1]; TGF-β 2.5 ng/ml, 2T3 C-17 cells): 0.156
Luciferase Activity ([1]; TGF-β 5 ng/ml, 2T3 C-17 cells): 0.077
Luciferase Activity ([1]; TGF-β 10 ng/ml, 2T3 C-17 cells): 0.081
Effect on luciferase activity of the reporter construct [2]: no significant effects

acid FGF: Acidic Fibroblast Growth Factor
Luciferase Activity ([1]; acid FGF 0.195 ng/ml, 2T3 C-17 cells): 0.06
Luciferase Activity ([1]; acid FGF 0.39 ng/ml, 2T3 C-17 cells): 0.057
Luciferase Activity ([1]; acid FGF 0.78 ng/ml, 2T3 C-17 cells): 0.058
Luciferase Activity ([1]; acid FGF 1.56 ng/ml, 2T3 C-17 cells): 0.051
Luciferase Activity ([1]; acid FGF 3.125 ng/ml, 2T3 C-17 cells): 0.052
Luciferase Activity ([1]; acid FGF 6.25 ng/ml, 2T3 C-17 cells): 0.054
Luciferase Activity ([1]; acid FGF 12.5 ng/ml, 2T3 C-17 cells): 0.051
Luciferase Activity ([1]; acid FGF 25 ng/ml, 2T3 C-17 cells): 0.052
Luciferase Activity ([1]; acid FGF 50 ng/ml, 2T3 C-17 cells): 0.058
Luciferase Activity ([1]; acid FGF 100 ng/ml, 2T3 C-17 cells): 0.075
Effect on luciferase activity of the reporter construct [2]: no significant effects

B1: PTH: Parathyroid Hormone (protein, UniProt P01270 32-115, looked up)
Parathyroid hormone: SVSEIQLMHNLGKHLNSMERVEWLRKKLQDVHNFVALGAPLAPRDAGSQRPRKKEDNVLVESHEKSLGEADKADVNVLTKAKSQ
modifications: Parathyroid hormone
Luciferase Activity ([1]; PTH 0.195 ng/ml, 2T3 C-17 cells): 0.05
Luciferase Activity ([1]; PTH 0.39 ng/ml, 2T3 C-17 cells): 0.053
Luciferase Activity ([1]; PTH 0.78 ng/ml, 2T3 C-17 cells): 0.047
Luciferase Activity ([1]; PTH 1.56 ng/ml, 2T3 C-17 cells): 0.05
Luciferase Activity ([1]; PTH 3.125 ng/ml, 2T3 C-17 cells): 0.05
Luciferase Activity ([1]; PTH 6.25 ng/ml, 2T3 C-17 cells): 0.048
Luciferase Activity ([1]; PTH 12.5 ng/ml, 2T3 C-17 cells): 0.051
Luciferase Activity ([1]; PTH 25 ng/ml, 2T3 C-17 cells): 0.053
Luciferase Activity ([1]; PTH 50 ng/ml, 2T3 C-17 cells): 0.053
Luciferase Activity ([1]; PTH 100 ng/ml, 2T3 C-17 cells): 0.055

B2: noggin: BMP binding protein noggin (protein, UniProt Q13253 28-232, looked up)
Noggin: QHYLHIRPAPSDNLPLVDLIEHPDPIFDPKEKDLNETLLRSLLGGHYDPGFMATSPPEDRPGGGGGAAGGAEDLAELDQLLRQRPSGAMPSEIKGLEFSEGLAQGKKQRLSKKLRRKLQMWLWSQTFCPVLYAWNDLGSRFWPRYVKVGSCFSKRSCSVPEGMVCKPSKSVHLTVLRWRCQRRGGQRCGWIPIQYPIISECKCSC
Effect on BMP-2-induced reporter activity ([3]; 500 ng/ml of noggin, 100 ng/ml of BMP-2): completely blocked
Inhibition of BMP-2-induced luciferase activity ([3]; dose-response): inhibit BMP-2-induced luciferase activity in a dose-dependent manner
